# Target: human RAF1 (Homo sapiens (Human), UniProt P04049)
# Assay: Protein kinase assay (radiometric 33P-ATP, MEK1 (K97R) substrate), RAF-1
# Type: biochemical
# Details: human MEK1 (K97R) substrate 3 micromolar, ATP 10 micromolar; 10-dose, 3-fold serial dilution starting at 10 micromolar; read-out: RAF-1 IC50
# Description: Example 1: Kinase Assay Protocol
# Assay platform was used to measure kinase/inhibitor interactions as described previously (Anastassiadis et al., 2011). In brief, for each reaction, kinase and substrate were mixed in a buffer containing 20 mM HEPES (pH 7.5), 10 mM MgCl2, 1 mM EGTA, 0.02% Brij35, 0.02 mg/mL BSA, 0.1 mM Na3VO4, 2 mM DTT, and 1% DMSO. All compounds were solubilized in DMSO. Compounds were then added to each reaction mixture via acoustic dispense using an ECHO 550 nanoliter dispenser. For human RAF1 testing, human MEK1 (K97R) was used as a substrate at a concentration of 3 micromolar, with a final ATP concentration of 10 micromolar. For human BRAF testing, human MEK1 (K97R) was used as a substrate at 1 micromolar concentration, with a final ATP concentration of 25 micromolar. […] After a 20-min incubation, ATP (Sigma-Aldrich, St. Louis, Mo. 63178) and [g33P] ATP (specific activity 10 microCi/microliter) purchased at PerkinElmer (Boston, Mass., 02118 Cat #BLU 003H250UC) were added at a final total concentration of […]. Reactions were carried out at room temperature for 2 hr and spotted onto P81 ion exchange cellulose chromatography paper (Reaction Biology). Filter paper was washed in 0.75% phosphoric acid to remove unincorporated ATP. The percent remaining kinase activity relative to a vehicle-containing (DMSO) kinase reaction was calculated for each kinase/inhibitor pair. IC50 values were calculated using Prism 5 (GraphPad).
# human RAF1, sequence (P04049 whole entry): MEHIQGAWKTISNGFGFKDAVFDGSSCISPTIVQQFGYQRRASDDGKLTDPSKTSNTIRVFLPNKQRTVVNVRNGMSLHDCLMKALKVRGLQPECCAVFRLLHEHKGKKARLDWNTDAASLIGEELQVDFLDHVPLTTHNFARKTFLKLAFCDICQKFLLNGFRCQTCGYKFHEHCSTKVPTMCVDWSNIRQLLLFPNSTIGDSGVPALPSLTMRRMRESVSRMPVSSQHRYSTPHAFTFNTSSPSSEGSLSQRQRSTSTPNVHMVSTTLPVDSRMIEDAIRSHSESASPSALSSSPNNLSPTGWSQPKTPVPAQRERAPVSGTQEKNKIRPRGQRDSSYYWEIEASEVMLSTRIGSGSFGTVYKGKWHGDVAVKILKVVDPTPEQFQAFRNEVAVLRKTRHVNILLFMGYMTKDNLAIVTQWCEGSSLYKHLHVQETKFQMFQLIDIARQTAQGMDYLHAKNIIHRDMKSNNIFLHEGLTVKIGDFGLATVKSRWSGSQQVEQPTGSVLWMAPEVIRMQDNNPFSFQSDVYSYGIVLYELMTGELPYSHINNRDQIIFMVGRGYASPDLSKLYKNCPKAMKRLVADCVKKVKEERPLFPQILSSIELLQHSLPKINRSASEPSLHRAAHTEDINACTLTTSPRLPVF
row,Structure (SMILES),IC50
1,"Cc1ccc(NC(=O)N2CC[C@@H](CC(F)(F)F)C2)cc1-c1cc(-c2ccnn2C)nc(N2CCOCC2)c1 [Example 49, (3S)—N-[4-methyl-3-[2-(2-methylpyrazol-3-yl)-6-(morpholin-4-yl)pyridin-4-yl]phenyl]-3-(2,2,2-trifluoroethyl)pyrrolidine-1-carboxamide]",< 1 nM
2,"Cc1cc(-c2cc(-c3cc(NC(=O)N4CC[C@@H](CC(F)(F)F)C4)ccc3C)cc(N3CCOCC3)n2)n(C)n1 [Example 50, (3S)—N-[3-[2-(2,5-dimethylpyrazol-3-yl)-6-(morpholin-4-yl)pyridin-4-yl]-4-methylphenyl]-3-(2,2,2-trifluoroethyl)pyrrolidine-1-carboxamide]",1 to 10 nM
3,"Cc1ccc(NC(=O)N2CC[C@@H](CC(F)(F)F)C2)cc1-c1cc(-c2c(C)n[nH]c2C)nc(N2CCOCC2)c1 [Example 51, (3S)—N-[3-[2-(3,5-dimethyl-1H-pyrazol-4-yl)-6-(morpholin-4-yl)pyridin-4-yl]-4-methylphenyl]-3-(2,2,2-trifluoroethyl)pyrrolidine-1-carboxamide]",1 to 10 nM
4,"Cc1ccc(NC(=O)N2CC[C@@H](CC(F)(F)F)C2)cc1-c1cc(-c2cc(C)n(C)n2)nc(N2CCOCC2)c1 [Example 52, (3S)—N-[3-[2-(1,5-dimethylpyrazol-3-yl)-6-(morpholin-4-yl)pyridin-4-yl]-4-methylphenyl]-3-(2,2,2-trifluoroethyl)pyrrolidine-1-carboxamide]",1 to 10 nM
5,"Cc1ccc(NC(=O)N2CC[C@@H](CC(F)(F)F)C2)cc1-c1cc(-c2c[nH]cn2)nc(N2CCOCC2)c1 [Example 53, (3S)—N-[3-[2-(1H-imidazol-4-yl)-6-(morpholin-4-yl)pyridin-4-yl]-4-methylphenyl]-3-(2,2,2-trifluoroethyl)pyrrolidine-1-carboxamide]",1 to 10 nM
6,"Cc1ccc(NC(=O)N2CC[C@@H](CC(F)(F)F)C2)cc1-c1cc(-c2cn(C)cn2)nc(N2CCOCC2)c1 [Example 54, (3S)—N-{4-methyl-3-[2-(1-methylimidazol-4-yl)-6-(morpholin-4-yl)pyridin-4-yl]phenyl}-3-(2,2,2-trifluoroethyl)pyrrolidine-1-carboxamide]",1 to 10 nM
7,"Cc1ccc(NC(=O)N2CC[C@@H](CC(F)(F)F)C2)cc1-c1cc(C#CC(C)N)nc(N2CCOCC2)c1 (stereo partly drawn) [Example 55, (3S)—N-{3-[2-(3-aminobut-1-yn-1-yl)-6-(morpholin-4-yl)pyridin-4-yl]-4-methylphenyl}-3-(2,2,2-trifluoroethyl)pyrrolidine-1-carboxamide]",1 to 10 nM
8,"Cc1ccc(NC(=O)N2CC[C@@H](CC(F)(F)F)C2)cc1-c1cc(N2CCOCC2)nc(C(F)(F)F)c1 [Example 56, (3S)—N-[4-methyl-3-[2-(morpholin-4-yl)-6-(trifluoromethyl)pyridin-4-yl]phenyl]-3-(2,2,2-trifluoroethyl)pyrrolidine-1-carboxamide]",1 to 10 nM
9,"Cc1ccc(NC(=O)N2CC[C@@H](CC(F)(F)F)C2)cc1-c1cc(C(F)F)nc(N2CCOCC2)c1 [Example 57, (3S)—N-{3-[2-(difluoromethyl)-6-(morpholin-4-yl)pyridin-4-yl]-4-methylphenyl}-3-(2,2,2-trifluoroethyl)pyrrolidine-1-carboxamide]",1 to 10 nM
10,"Cc1ccc(NC(=O)N2CC[C@@H](CC(F)(F)F)C2)cc1-c1cc(-c2cnn(CCO)c2)nc(N2CCOCC2)c1 [Example 58, (3S)—N-(3-(2-(1-(2-hydroxyethyl)-1H-pyrazol-4-yl)-6-morpholinopyridin-4-yl)-4-methylphenyl)-3-(2,2,2-trifluoroethyl)pyrrolidine-1-carboxamide]",1 to 10 nM
11,"Cc1ccc(NC(=O)N2CC[C@@H](CC(F)(F)F)C2)cc1-c1cc(-c2ccnn2CCO)nc(N2CCOCC2)c1 [Example 59, (3S)—N-(3-{2-[2-(2-hydroxyethyl)pyrazol-3-yl]-6-(morpholin-4-yl)pyridin-4-yl}-4-methylphenyl)-3-(2,2,2-trifluoroethyl)pyrrolidine-1-carboxamide]",1 to 10 nM
12,"Cc1ccc(NC(=O)N2CC[C@@H](CC(F)(F)F)C2)cc1-c1cc(CO)nc(N2CCOCC2)c1 [Example 60, (3S)—N-[3-[2-(hydroxymethyl)-6-(morpholin-4-yl)pyridin-4-yl]-4-methylphenyl]-3-(2,2,2-trifluoroethyl)pyrrolidine-1-carboxamide]",1 to 10 nM
13,"Cc1ccc(NC(=O)N2CC[C@@H](CC(F)(F)F)C2)cc1-c1cc(-c2nncn2C)nc(N2CCOCC2)c1 [Example 61, (3S)—N-{4-methyl-3-[2-(4-methyl-1,2,4-triazol-3-yl)-6-(morpholin-4-yl)pyridin-4-yl]phenyl}-3-(2,2,2-trifluoroethyl)pyrrolidine-1-carboxamide]",1 to 10 nM
14,"Cc1ccc(NC(=O)N2CCO[C@H](C(F)(F)F)C2)cc1-c1cc(-c2cnn(C)c2)nc(N2CCOCC2)c1 [Example 62, (2S)—N-{4-methyl-3-[2-(1-methylpyrazol-4-yl)-6-(morpholin-4-yl)pyridin-4-yl]phenyl}-2-(trifluoromethyl)morpholine-4-carboxamide]",1 to 10 nM
15,"Cc1ccc(NC(=O)N2CCO[C@@H](C(F)(F)F)C2)cc1-c1cc(-c2cnn(C)c2)nc(N2CCOCC2)c1 [Example 63, (2R)—N-{4-methyl-3-[2-(1-methylpyrazol-4-yl)-6-(morpholin-4-yl)pyridin-4-yl]phenyl}-2-(trifluoromethyl)morpholine-4-carboxamide]",1 to 10 nM
16,"Cc1ccc(NC(=O)N2CC[C@@H](OC(F)(F)F)C2)cc1-c1cc(-c2cnn(C)c2)nc(N2CCOCC2)c1 [Example 64, (3R)—N-{4-methyl-3-[2-(1-methylpyrazol-4-yl)-6-(morpholin-4-yl)pyridin-4-yl]phenyl}-3-(trifluoromethoxy)pyrrolidine-1-carboxamide]",1 to 10 nM
17,"Cc1ccc(NC(=O)N2CCO[C@@H](C(F)(F)F)C2)cc1-c1cc(-c2ccnn2C)nc(N2CCOCC2)c1 [Example 65, (2R)—N-{4-methyl-3-[2-(2-methylpyrazol-3-yl)-6-(morpholin-4-yl)pyridin-4-yl]phenyl}-2-(trifluoromethyl)morpholine-4-carboxamide]",< 1 nM
18,"Cc1ccc(NC(=O)N2CC=C(C(F)(F)F)C2)cc1-c1cc(-c2cnn(C)c2)nc(N2CCOCC2)c1 [Example 66, N-{4-methyl-3-[2-(1-methylpyrazol-4-yl)-6-(morpholin-4-yl)pyridin-4-yl]phenyl}-3-(trifluoromethyl)-2,5-dihydropyrrole-1-carboxamide]",< 1 nM
19,"Cc1cc(F)c(NC(=O)N2CCO[C@H](C(F)(F)F)C2)cc1-c1cc(-c2cnn(C)c2)nc(N2CCOCC2)c1 [Example 67, (2S)—N-{2-fluoro-4-methyl-5-[2-(1-methylpyrazol-4-yl)-6-(morpholin-4-yl)pyridin-4-yl]phenyl}-2-(trifluoromethyl)morpholine-4-carboxamide]",< 1 nM
20,"Cc1cc(F)c(NC(=O)N2CCO[C@@H](C(F)(F)F)C2)cc1-c1cc(-c2cnn(C)c2)nc(N2CCOCC2)c1 [Example 68, (2R)—N-{2-fluoro-4-methyl-5-[2-(1-methylpyrazol-4-yl)-6-(morpholin-4-yl)pyridin-4-yl]phenyl}-2-(trifluoromethyl)morpholine-4-carboxamide]",< 1 nM
21,"Cc1cc(F)c(NC(=O)N2CC=C(C(F)(F)F)C2)cc1-c1cc(-c2cnn(C)c2)nc(N2CCOCC2)c1 [Example 69, N-{2-fluoro-4-methyl-5-[2-(1-methylpyrazol-4-yl)-6-(morpholin-4-yl)pyridin-4-yl]phenyl}-3-(trifluoromethyl)-2,5-dihydropyrrole-1-carboxamide]",< 1 nM
22,"Cc1cc(-c2cc(NC(=O)N3CC[C@@H](CC(F)(F)F)C3)c(F)cc2C)cc(N2CCOCC2)n1 [Example 70, (3S)—N-{2-fluoro-4-methyl-5-[2-methyl-6-(morpholin-4-yl)pyridin-4-yl]phenyl}-3-(2,2,2-trifluoroethyl)pyrrolidine-1-carboxamide]",< 1 nM
23,"Cc1cc(F)c(NC(=O)N2CC[C@@H](CC(F)(F)F)C2)cc1-c1cc(C2CC2)nc(N2CCOCC2)c1 [Example 71, (3S)—N-{5-[2-cyclopropyl-6-(morpholin-4-yl)pyridin-4-yl]-2-fluoro-4-methylphenyl}-3-(2,2,2-trifluoroethyl)pyrrolidine-1-carboxamide]",< 1 nM
24,"CCc1cc(-c2cc(NC(=O)N3CC[C@@H](CC(F)(F)F)C3)c(F)cc2C)cc(N2CCOCC2)n1 [Example 72, (3S)—N-{5-[2-ethyl-6-(morpholin-4-yl)pyridin-4-yl]-2-fluoro-4-methylphenyl}-3-(2,2,2-trifluoroethyl)pyrrolidine-1-carboxamide]",< 1 nM
25,"Cc1cc(F)c(NC(=O)N2CC=C(C(F)(F)F)C2)cc1-c1cc(-c2ccnn2C)nc(N2CCOCC2)c1 [Example 73, N-{2-fluoro-4-methyl-5-[2-(2-methylpyrazol-3-yl)-6-(morpholin-4-yl)pyridin-4-yl]phenyl}-3-(trifluoromethyl)-2,5-dihydropyrrole-1-carboxamide]",< 1 nM

# From patent US11407737B2, “Inhibitors of RAF kinases” (Kinnate Biopharma Inc., priority 2020, dated 2022)
